US20060063792A1, “Substituted morphinans and methods of their use” (Adolor Corporation, priority 2004, published 2006)
pIC50, pKi: −log10 of the molar value.

How the values were obtained:
μ opioid receptor [1] = biological target: T1, μ opioid receptor (Homo sapiens, UniProt P35372); assay: [3H]diprenorphine receptor binding, cloned human μ opioid receptor
T1 construct: expressed in transfected cells
Experimental: The potencies of the compounds were determined by testing the ability of a range of concentrations of each compound to inhibit the binding of the non-selective opioid antagonist, [^3H]diprenorphine, to the cloned human μ, κ, and δ opioid receptors, expressed in separate cell lines. IC50 values were obtained by nonlinear analysis of the data using GraphPad Prism version 3.00 for Windows (GraphPad Software, San Diego). Ki values were obtained by Cheng-Prusoff corrections of IC50 values.
The receptor binding method (DeHaven and DeHaven-Hudkins, “Characterization of Opioid Receptors”, Current Protocols in Pharmacology (Eds. Enna S J and Williams M) 1.4.1-1.4.12, John Wiley & Sons, Inc., New York (1998)) was a modification of the method of Raynor, et al., Mol. Pharmacol. 45:330-334 (1994). After dilution in buffer A and homogenization as before, membrane proteins (10-80 μg) in 250 μL were added to mixtures containing test compound and [^3H]diprenorphine (0.5 to 1.0 nM, 40,000 to 50,000 dpm) in 250 μL of buffer A in 96-well deep-well polystyrene titer plates (Beckman). […] The filters were rinsed 4 times with 1 mL of cold 50 mM Tris HCl, pH 7.8 and radioactivity remaining on the filters determined by scintillation spectroscopy. Nonspecific binding was determined by the minimum values of the titration curves and was confirmed by separate assay wells containing 10 μM naloxone. Ki values were determined by Cheng-Prusoff corrections of IC50 values derived from nonlinear regression fits of 12 point titration curves using GraphPad Prism® version 3.00 for Windows (GraphPad Software, San Diego, Calif.).
To determine the equilibrium dissociation constant for the inhibitors (Ki), radioligand bound (cpm) in the presence of various concentrations of test compounds was measured. […] The Ki values were then determined from the […] values by the following equation, [formula] where [ligand] is the concentration of radioligand and Kd is the equilibrium dissociation constant for the radioligand.

μ opioid receptor [2] = biological target: T1, μ opioid receptor; assay: Inhibition of agonist (loperamide)-stimulated [35S]GTPγS binding to membranes with cloned human μ opioid receptor; assay type: biochemical
Experimental: The potencies of the antagonists were assessed by their abilities to inhibit agonist-stimulated [^35S]GTPγS binding to membranes containing the cloned human μ, κ, or δ opioid receptors. The agonists used were loperamide for the μ opioid receptor, U50488H for the κ opioid receptor, and BW373U86 for the δ opioid receptor.
To determine the IC50 value, which was the concentration to give half-maximal inhibition of agonist-stimulated [^35S]GTPγS binding, the amount of [^35S]GTPγS bound in the presence of a fixed concentration of agonist and various concentrations of antagonist was measured. The fixed concentration of agonist was the EC80 for the agonist, which was the concentration to give 80% of the relative maximum stimulation of […] binding. The IC50 value was determined from a best nonlinear regression fit of the data to the following equation, [formula] where Y is the amount of [^35S]GTPγS bound at each concentration of antagonist, Bottom is the calculated amount of [^35S]GTPγS bound in the presence of an infinite concentration of antagonist, Top is the calculated amount of [^35S]GTPγS bound in the absence of added antagonist, X is the logarithm of the concentration of antagonist, and LogIC50 is the logarithm of the concentration of antagonist where the amount of [^35S]GTPγS bound is halfway between Bottom and Top. The nonlinear regression fit was performed using GraphPad Prism® version 3.00 for Windows (GraphPad Software, San Diego, Calif.). Mouse Gastrointestinal Transit (GIT) Assay (in vivo Assay)

T1 sequence (P35372 whole entry): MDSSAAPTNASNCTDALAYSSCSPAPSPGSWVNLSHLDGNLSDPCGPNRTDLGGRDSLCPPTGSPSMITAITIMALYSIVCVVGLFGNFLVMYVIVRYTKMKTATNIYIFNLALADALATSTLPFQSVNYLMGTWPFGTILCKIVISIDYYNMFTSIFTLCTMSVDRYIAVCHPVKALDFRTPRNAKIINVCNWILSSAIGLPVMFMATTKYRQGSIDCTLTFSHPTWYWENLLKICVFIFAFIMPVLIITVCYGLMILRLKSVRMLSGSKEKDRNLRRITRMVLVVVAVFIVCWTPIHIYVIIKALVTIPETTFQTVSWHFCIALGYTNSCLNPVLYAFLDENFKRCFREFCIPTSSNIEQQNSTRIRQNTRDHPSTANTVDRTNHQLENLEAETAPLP

SMILES | pKi (μ opioid receptor [1]) | pIC50 (μ opioid receptor [2])
O=C(O)CNC(=O)/C=C1/CC[C@@]2(O)[C@H]3Cc4ccc(O)c5c4[C@@]2(CCN3CC2CC2)[C@H]1O5 [Example 33, 4,5α-Epoxy-3,14β-dihydroxy-6,6Z(N-acryloylamino-acetic acid)-17-(cyclopropylmethyl)morphinan] | 8.52 | 7.67
CC(=O)N[C@@]12CC[C@H](NCc3ccccc3)[C@@H]3Oc4c(O)ccc5c4[C@@]31CCN(CC1CC1)[C@@H]2C5 [Example 73, 4,5α-Epoxy-3-hydroxy-14β-acetylamino-6-α-benzylamino-17-(cyclopropylmethyl)morphinan] | 8.55 | 8.38
O=C(O)CCCC(=O)N[C@@]12CCC(=O)[C@@H]3Oc4c(O)ccc5c4[C@@]31CCN(CC1CC1)[C@@H]2C5 [Example 85] | 8.39 | 8.96
